Measurements taken from the NIST ThermoML archive (doi:10.1021/acs.jced.7b00690).

Assay: mn = molality of the nth substance listed, in mol/kg
Settings: 100 kPa, Liquid, Vibrating tube method

O=C([O-])C(=O)[O-].[Na+].[Na+] [sodium oxalate] + O
Settings | mass density [kg/m3]
298.15 K, m1 = 0.263 | 1025.1
298.15 K, m1 = 0.265 | 1020.9
298.15 K, m1 = 0.272 | 1020.9
323.15 K, m1 = 0.317 | 1020.3
323.15 K, m1 = 0.334 | 1022.4
343.15 K, m1 = 0.385 | 1016.5
